Experimental data from US20190307820A1, “COMPOSITIONS AND METHODS OF USING STAT1/3 INHIBITORS WITH ONCOLYTIC HERPES VIRUS” (priority 2016, published 2019).

What was measured:
[1] = test system: oHSV-1 (G207) in BV2 cells; experiment: G207 replication in BV2 cells with chemical inhibitors, plaque forming assay; assay type: cell-based, HSV-1
Procedure: (§1) FIG. 12A contains bar graphs showing the results of BV2 cells that were pre-treated with indicated chemical compounds for 1-2 hours and then infected with oHSV-1 at an MOI of 1. Viruses were harvested after 48 hours of oHSV-1 (G207) and indicated chemical inhibitor treatment.
as §1, with “12F is a” for “12A contains”, “graph” for “graphs”, “treatment. After 48 hours of treatment with oHSV-1 (G207) and C16, viruses were harvested and titrated by plaque forming assay on vero cells.” for “treatment.”
U87 (5×104) alone or U87+microglia co-culture (5×104+5×104) or BV2 microglia cells (5×104) alone were seeded into a 24-well plate. After overnight incubation (to allow the cells to attach), cells were pretreated with indicated concentration of NFkB inhibitor, Bay-11 (Santa Cruz, Canada) or an indicated concentration of imidazolo-oxindole derivative C16 (Milipore, Canada) or vehicle for 1-2 hours. The cells were then infected with oHSV-1 (G207 or HrR3) virus at a MOI of 1 in presence of chemical inhibitors for another 2 days. The viruses were harvested and titrated in vero cells by plaque forming assay in 12-well plates by triplicates.
The effects of a PKR inhibitor (C16), a NFkappaB inhibitor (Bay11), and an iNOS inhibitor (aminoguanidine hydrochloride) were tested on G207 replication in BV2 cells (Example 15). […] To verify that C16-mediated viral gene transcriptional augmentation is not due to deletions in ICP34.5 and/or ICP6 in G207, the effect of C16 on wild type (KOS) and ICP6 mutated (HrR3) HSV-1 infected BV2 cells was also examined. […] Finally, whether C16 can overcome this microglia-mediated suppression of viral replication in glioma cells was examined.

[2] = test system: oHSV-1 (HrR3) in U87 cells; experiment: oHSV-1 (HrR3) replication in U87 cells, titrated in vero cells; assay type: cell-based, HSV-1; settings: HrR3 MOI-0.1, 48 hours
Procedure: FIGS. 2A-2B contain charts that show the effect of nifuroxazide on replication of oHSV-1. (FIG. 2A) Indicated cells were infected with HrR3 viruses at MOI-0.1. Viruses were harvested at 48 hours post-infected and titrated in vero cells. Data are presented as mean SD, *P<0.05 vs corresponding vehicle treatment. (FIG. 2B) U87 or glio cells were treated with HrR3 at a MOI of 1 and indicated concentration of nifuroxazide for 48 hours. Total DNA was extracted and subjected to qPCR to detect HSV-1 using ICP27 primer. nifuroxazide mediated oHSV-1% increase was represented in the figure.
In this example, the effect of nifuroxazide on oHSV-1 anti-tumor efficacy was evaluated. oHSV-1 infected treated glioma cells were incubated with low concentration of nifuroxazide. Replication increased 27- and 40-fold with 0.5 μM nifuroxazide and 10 μM nifuroxazide treated U87 cells respectively. Similarly, virus replication increased 0.8- and 4.7-fold virus in 9L cells treated with 0.5 μM nifuroxazide and 10 μM nifuroxazide respectively (FIG. 2A).

ICP27 = experiment: Western blot of ICP27 in HrR3 infected U87 cells; assay type: cell-based, HSV-1; settings: 0.5 μM, 1 μM and 10 μM nifuroxazide, HrR3 MOI-3, 24 hours
Procedure: FIGS. 4A-4C show the effect of nifuroxazide on HSV-1 gene expression. (FIG. 4A) U87 cells were treated with HrR3 viruses at a MOI-3 and indicated doses of nifuroxazide. 24 hours post infected, total protein was extracted and subjected to western blot analysis. (FIG. 4B) U87 cells were treated with HrR3 at a MOI-5 and indicated concentration of nifuroxazide for 6 hours. ICP27 mRNA level was detected by RT-qPCR. (FIG. 4C) Relative mRNA level (2^−ΔΔCT) is shown. Data are presented as mean SD, *P<0.05 vs corresponding vehicle treatment.
In this example, the underlying mechanism of nifuroxazide mediated oHSV-1 replication enhancement was examined. The effect of nifuroxazide on viral immediate early gene, ICP27 and ICP4 expression was established by Western blot analysis.

pSTAT3 = biological target: T1, pSTAT3 (Homo sapiens, UniProt P40763); experiment: Western blot of phosphorylated STAT3 in harvested U87 tumour tissues; assay type: in vivo, mice; settings: HrR3 with 50 mg/kg or 100 mg/kg NF i.p., day 10
T1 construct: from tissue; host or cells: subcutaneous U87 tumours harvested from mice
T1 sequence (P40763 whole entry): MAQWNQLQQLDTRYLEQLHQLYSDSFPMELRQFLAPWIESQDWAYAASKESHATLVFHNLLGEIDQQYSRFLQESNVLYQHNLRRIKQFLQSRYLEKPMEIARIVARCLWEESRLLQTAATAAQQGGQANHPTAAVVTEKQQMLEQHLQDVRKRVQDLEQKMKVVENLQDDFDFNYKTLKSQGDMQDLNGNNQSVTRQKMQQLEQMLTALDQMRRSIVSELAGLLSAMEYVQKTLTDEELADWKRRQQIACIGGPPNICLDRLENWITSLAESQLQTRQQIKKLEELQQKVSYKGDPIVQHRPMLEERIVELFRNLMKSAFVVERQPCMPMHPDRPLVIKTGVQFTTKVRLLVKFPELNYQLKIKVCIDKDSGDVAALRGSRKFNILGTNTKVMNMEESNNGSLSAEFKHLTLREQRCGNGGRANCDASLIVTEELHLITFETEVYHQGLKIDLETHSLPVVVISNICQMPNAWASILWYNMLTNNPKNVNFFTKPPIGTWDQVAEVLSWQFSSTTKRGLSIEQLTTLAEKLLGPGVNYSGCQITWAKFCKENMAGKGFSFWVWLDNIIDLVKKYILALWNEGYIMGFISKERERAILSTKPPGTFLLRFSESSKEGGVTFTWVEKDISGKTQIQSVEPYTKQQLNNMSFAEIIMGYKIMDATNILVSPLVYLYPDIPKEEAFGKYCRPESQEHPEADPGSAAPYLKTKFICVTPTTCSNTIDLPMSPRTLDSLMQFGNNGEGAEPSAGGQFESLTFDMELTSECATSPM
Procedure: FIGS. 19A-C show STAT inhibition by the combination of NF and oHSV-1. FIG. 19A and FIG. 19B, U87 cells (A) or CT26 cells (B) were treated with the indicated concentrations of HrR3 or NF or a combination. Total protein was extracted after 24 hours and subjected to western blot analysis. Band intensity was measured using Image J software and normalized to β-actin. Samples were run in triplicate and data are as means±S.E. Statistically significant differences are indicated by P<0.05 or P<0.01. FIG. 19C, Mice subcutaneously bearing U87 tumors were intratumorally injected with a single dose of HrR3 virus (1×10^6 PFU) and/or peritoneally injected doses of NF as indicated. Tumors were harvested on day 10 post treatment and total protein was extracted from a mouse of each treatment group and subjected to western blot analysis in triplicate. Results are reported as means±S.E.
To further confirm that NF is able to inhibit STAT activation in vivo, subcutaneously implanted U87 tumours were treated with either HrR3 alone or in combination with 50 mg/kg NF or 100 mg/kg NF. Expression levels of phosphorylated STAT1/3 in harvested tumour tissues were measured by western blotting.

Compound | enhanced the replication ([1]; 1 μM of C16, G207 MOI of 1, 48 hours) | enhanced the replication ([1]; 10 μM of C16, G207 MOI of 1, 48 hours) | Replication increased ([2]; 0.5 μM nifuroxazide) | Replication increased ([2]; 10 μM nifuroxazide) | ICP27 expression (ICP27) | virally induced upregulation of pSTAT3 (pSTAT3)
O=C1Nc2ccc3ncsc3c2/C1=C/c1c[nH]cn1 [C16, 6,8-Dihydro-8-(1H-imidazol-5-ylmethylene)-7H-pyrrolo[2,3-g]benzothiazol-7-one] | 9 times | 8 times |  |  |  | 
O=C(N/N=C/c1ccc([N+](=O)[O-])o1)c1ccc(O)cc1 [nifuroxazide, Benzoic acid, 4-hydroxy-, [(5-nitro-2-furanyl)metylene]hydrazide] |  |  | 27 fold | 40 fold | significantly increases ICP27 expression | inhibited in a dose-dependent fashion
